Assay results reported in patent US20130064890A1, “PHARMACEUTICAL FORMULATION BASED ON IBUPROFEN AND CODEINE HAVING IMPROVED STABILITY” ([…] MANUFACTURING, S.L., priority 2010, published 2013).

Assay: Differential Scanning Calorimetry (DSC) detection of incompatibilities, binary mixtures in equal parts
Type: physicochemical
Details: mixture in equal parts with ibuprofen, heating rate 5° C./min
Method: The technique called Differential Scanning calorimetry or DSC has been used for the thermal detection of possible incompatibilities among ingredients of the pharmaceutical formulation described in the present invention. Thus, by using a differential Scanning calorimeter, DSC-7 (Perkin-Elmer, USA) at a heating rate of the samples of 5° C./min, the quantity of energy or enthalpy required to keep the sample at the same temperature as that of the reference and that at each of the test temperatures is measured. […] However, when phase changes occur, the isothermal energy required is registered as an electric signal generated by thermocouples. It is understood that a change of phase occurs (or appearance of incompatibility) if the expected temperature value varies above the considered environment by 10% with respect to its original. Said error is carried from that produced typically in the analytical measurements (±5%, typical in terms of reproducibility), the uncertainty of apparatus calibration (±1%), the accuracy of the micromixture of ingredients achieved (±3%), and the rapid heating rates (±1% for heating>1° C./min). DSC is widely used in the industry as a quality control instrument due to its applicability in assessing the purity of the samples and studying the curing of the polymers. […]

Molecule	thermal/physical incompatibility with ibuprofen by DSC
CCCCCCCCCCCCCCCCCCOC(=O)/C=C/C(=O)[O-].[Na+] [sodium stearyl fumarate]	does not show any physical incompatibility
magnesium stearate	incompatible eutectic mixture
